This assay addresses T1, hSCN3A sodium channels (Homo sapiens, UniProt Q9NY46).
T1 construct: expressed in transfected cells
The assay can be described thus: hSCN3A electrophysiology, Ionworks Quattro automated platform (Table C). It counts as cell-based. The following applies: for inhibition at 3 µM: read-out: SCN3A % INHIB HTS IWQ 3 μM; for inhibition at 10 µM: read-out: SCN3A % INHIB HTS IWQ 10 μM; for SCN3A INHIB INACT DRC EP IWQ EMAX: Emax of dose-response curve, inactivated state; for IC50: read-out: SCN3A IWQ IC-50. As to the method:
Human Embryonic Kidney (HEK) cells were transfected with an hSCN3A construct using lipofectamine reagent (Invitrogen), using standard techniques. […] Clones were screened for expression using the whole-cell voltage-clamp technique.
HEK cells stably transfected with hSCN3A were maintained in DMEM medium supplemented with 10% heat-inactivated fetal bovine serum and 400 μg/ml G418 sulfate in an incubator at 37° C. with a humidified atmosphere of 10% CO2. […] For electrophysiological studies, cells were removed from the culture flask by brief trypsinization and replated at low density onto glass cover slips. Cells were typically used for electrophysiological experiments within 24 to 72 h after plating.
Electrophysiological assays were also conducted using the Ionworks Quattro automated electrophysiological platform (Molecular Devices Corp) (Table C). Intracellular and extracellular solutions were as described above with the following changes, 100 μg/ml amphotericin was added to the intracellular solution to perforate the membrane and allow electrical access to the cells. hSCN3A cells were grown and harvested as for PatchXpress and cells were resuspended in extracellular solution at a concentration of 3-4×10^6 cells/ml. The onboard liquid handling facility of the Ionworks Quattro was used for dispensing cells and application of test compounds. A voltage protocol was then applied that comprised of a voltage step to fully inactivate the sodium channels, followed by a brief hyperpolarized recovery period to allow partial recovery from inactivation for unblocked sodium channels, followed by a test depolarized voltage step to assess magnitude of inhibition by test compound. Compound effect was determined based on current amplitude difference between the pre-compound addition and post-compound addition scans.

The structures appear in SMILES notation.

T1 sequence (Q9NY46 whole entry): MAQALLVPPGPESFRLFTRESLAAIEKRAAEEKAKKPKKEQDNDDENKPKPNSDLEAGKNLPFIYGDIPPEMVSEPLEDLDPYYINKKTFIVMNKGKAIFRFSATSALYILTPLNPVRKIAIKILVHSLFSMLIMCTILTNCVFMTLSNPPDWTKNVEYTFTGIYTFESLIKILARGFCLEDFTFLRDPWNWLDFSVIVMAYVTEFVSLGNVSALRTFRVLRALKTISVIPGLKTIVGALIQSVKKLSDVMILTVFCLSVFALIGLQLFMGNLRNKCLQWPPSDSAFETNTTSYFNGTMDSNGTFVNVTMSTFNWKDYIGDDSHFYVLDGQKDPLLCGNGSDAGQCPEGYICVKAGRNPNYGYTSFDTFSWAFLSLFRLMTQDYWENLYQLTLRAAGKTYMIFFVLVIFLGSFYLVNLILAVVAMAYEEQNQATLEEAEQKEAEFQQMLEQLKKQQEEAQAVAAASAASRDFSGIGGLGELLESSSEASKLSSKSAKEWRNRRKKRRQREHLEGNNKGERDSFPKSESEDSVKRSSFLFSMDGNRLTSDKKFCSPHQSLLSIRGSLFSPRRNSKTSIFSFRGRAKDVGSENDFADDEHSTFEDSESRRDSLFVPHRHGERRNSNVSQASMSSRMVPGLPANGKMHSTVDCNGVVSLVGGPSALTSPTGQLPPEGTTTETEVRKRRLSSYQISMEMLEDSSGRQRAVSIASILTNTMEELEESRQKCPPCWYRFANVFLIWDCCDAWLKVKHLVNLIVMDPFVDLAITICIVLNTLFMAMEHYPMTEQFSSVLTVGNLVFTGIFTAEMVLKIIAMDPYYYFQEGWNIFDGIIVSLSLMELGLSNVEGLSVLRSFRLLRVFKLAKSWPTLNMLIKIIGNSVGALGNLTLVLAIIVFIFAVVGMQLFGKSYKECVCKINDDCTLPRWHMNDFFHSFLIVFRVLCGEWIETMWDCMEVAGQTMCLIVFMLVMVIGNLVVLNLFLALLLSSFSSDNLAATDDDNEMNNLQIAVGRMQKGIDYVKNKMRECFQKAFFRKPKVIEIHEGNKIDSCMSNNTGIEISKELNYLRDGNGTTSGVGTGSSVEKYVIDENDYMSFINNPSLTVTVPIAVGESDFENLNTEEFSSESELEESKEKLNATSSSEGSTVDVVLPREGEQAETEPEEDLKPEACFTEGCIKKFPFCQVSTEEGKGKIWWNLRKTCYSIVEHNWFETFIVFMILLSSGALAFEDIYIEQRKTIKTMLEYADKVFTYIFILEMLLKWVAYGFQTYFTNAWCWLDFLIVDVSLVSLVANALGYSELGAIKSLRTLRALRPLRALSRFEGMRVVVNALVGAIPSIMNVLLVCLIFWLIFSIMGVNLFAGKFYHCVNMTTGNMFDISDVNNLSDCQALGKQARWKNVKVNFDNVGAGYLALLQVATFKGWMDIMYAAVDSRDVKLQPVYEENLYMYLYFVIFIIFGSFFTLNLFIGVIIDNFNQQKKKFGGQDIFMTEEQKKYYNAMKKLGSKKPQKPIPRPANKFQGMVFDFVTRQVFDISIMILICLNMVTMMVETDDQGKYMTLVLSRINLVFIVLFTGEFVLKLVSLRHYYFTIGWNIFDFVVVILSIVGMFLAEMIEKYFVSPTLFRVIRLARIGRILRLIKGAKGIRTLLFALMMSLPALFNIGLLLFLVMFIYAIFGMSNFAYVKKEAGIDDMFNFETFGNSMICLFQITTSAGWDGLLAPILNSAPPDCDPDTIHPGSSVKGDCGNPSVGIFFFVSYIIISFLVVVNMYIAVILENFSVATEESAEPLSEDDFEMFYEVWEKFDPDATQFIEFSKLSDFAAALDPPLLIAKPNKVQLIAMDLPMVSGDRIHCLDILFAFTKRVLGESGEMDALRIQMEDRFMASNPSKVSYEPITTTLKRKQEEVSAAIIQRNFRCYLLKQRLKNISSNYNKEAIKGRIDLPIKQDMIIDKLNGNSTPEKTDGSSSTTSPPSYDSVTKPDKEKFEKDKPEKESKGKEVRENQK

Regarding `O=C(c1ccc(S(=O)(=O)Nc2nccs2)cc1)N1CCOCC(Cc2ccc(F)cn2)C1` (stereo not drawn) [Example 216, 4-({6-[(5-Fluoropyridin-2-yl)methyl]-1,4-oxazepan-4-yl}carbonyl)-N-1,3-thiazol-2-yl-benzenesulfonamide], the inhibition at 3 µM (3 μM compound) was found to be 10.8%. Where the note is “10 μM compound”, the inhibition at 10 µM was 6.67%.

On to `O=C1[C@@H]2CC[C@@H]3[C@H]1C(c1ccccc1)N(C(=O)c1ccc(S(=O)(=O)Nc4nccs4)cc1)[C@H]3C2` (stereo partly drawn) [Example 192, 4-{[(3S,3aR,6R,7aS)-8-oxo-2-phenyloctahydro-1H-3,6-methanoindol-1-yl]carbonyl}-N-1,3-thiazol-2-yl-benzenesulfonamide], for which, under “3 μM compound”, the inhibition at 3 µM was found to be 6.18%. For the same compound, the inhibition at 10 µM (10 μM compound) came out at 26%.

Turning to `O=C(N[C@@H]1COC[C@@H]1c1ccc(F)cc1)c1ccc(S(=O)(=O)Nc2nccs2)cc1` [Example 179, N-[(3S,4R)-4-(4-fluorophenyl)tetrahydrofuran-3-yl]-4-[(1,3-thiazol-2-ylamino)sulfonyl]benzamide], the inhibition at 3 µM (3 μM compound) was 9.95%. For the same compound, the inhibition at 10 µM (10 μM compound) came out at 15.9%.

For `Cc1cnc(NC(=O)c2ccc(S(=O)(=O)Nc3nccs3)cc2)c(C)c1` [Example 184, N-(3,5-dimethylpyridin-2-yl)-4-[(1,3-thiazol-2-ylamino)sulfonyl]benzamide], under “3 μM compound”, the inhibition at 3 µM was 29%. Also, the inhibition at 10 µM (10 μM compound) turned out to be 20.8%.

Regarding `Cc1cccc(CNC(=O)c2ccc(S(=O)(=O)Nc3nccs3)cc2)c1` [Example 71, N-(3-methylbenzyl)-4-[(1,3-thiazol-2-ylamino)sulfonyl]benzamide], the inhibition at 3 µM (3 μM compound) worked out at 38.8%. Moreover, the inhibition at 10 µM (10 μM compound) was 37.1%.

As for `O=C(N[C@@H](CO)Cc1ccccc1)c1ccc(S(=O)(=O)Nc2nccs2)cc1` [Example 185, N-[(1R)-1-benzyl-2-hydroxyethyl]-4-[(1,3-thiazol-2-ylamino)sulfonyl]benzamide], for the setting “3 μM compound”, the inhibition at 3 µM is 20.9%. Further, the inhibition at 10 µM (10 μM compound) turned out to be 20.8%.

Take `C[C@@H](c1ccccc1)N(C)C(=O)c1ccc(S(=O)(=O)Nc2nccs2)cc1` [Example 256, N-methyl-N-[(1S)-1-phenylethyl]-4-[(1,3-thiazol-2-yl-amino)sulfonyl]benzamide]: where the note is “3 μM compound”, the inhibition at 3 µM stood at 1.49%. Further, where the note is “10 μM compound”, the inhibition at 10 µM was determined as 6.44%.

On to `O=C(c1ccc(S(=O)(=O)Nc2nccs2)cc1)N1CCOCC(Cc2ccccc2)C1` (stereo not drawn) [Example 259, 4-[(6-Benzyl-1,4-oxazepan-4-yl)carbonyl]-N-1,3-thiazol-2-yl-benzenesulfonamide], for which the inhibition at 3 µM (3 μM compound) was determined as 5.51%. For the setting “10 μM compound”, the inhibition at 10 µM was determined as 19.6%.

For the compound `COc1cccc(CCNC(=O)c2ccc(S(=O)(=O)Nc3nccs3)cc2)c1` [Example 166, N-[2-(3-methoxyphenyl)ethyl]-4-[(1,3-thiazol-2-ylamino)sulfonyl]benzamide], for the setting “3 μM compound”, the inhibition at 3 µM turned out to be 30.6%. Moreover, the inhibition at 10 µM (10 μM compound) amounted to 36.3%.

On to `CC(C)(NC(=O)c1ccc(S(=O)(=O)Nc2nccs2)cc1)c1ccc(F)c(F)c1` [Example 146, N-[1-(3,4-difluorophenyl)-1-methylethyl]-4-[(1,3-thiazol-2-ylamino)sulfonyl]benzamide], for which the inhibition at 3 µM (3 μM compound) is 24.3%. The inhibition at 10 µM (10 μM compound) was 27.9%.

With `Cc1ccc(C2CCCCN2C(=O)c2ccc(S(=O)(=O)Nc3nccs3)cc2)cc1` (stereo not drawn) [Example 207, 4-{[2-(4-Methylphenyl)piperidin-l-yl]carbonyl}-N-1,3-thiazol-2-yl-benzenesulfonamide], for the setting “3 μM compound”, the “SCN3A % INHIB HTS IWQ 3 μM” value is 27.25%. In addition, under “10 μM compound”, the “SCN3A % INHIB HTS IWQ 10 μM” value is on record as −16.86%.

Turning to `Cc1ccc([C@H](C)NC(=O)c2ccc(S(=O)(=O)Nc3nccs3)cc2)cc1` [Example 79, N-[(1S)-1-(4-methylphenyl)ethyl]-4-[(1,3-thiazol-2-ylamino)sulfonyl]benzamide], under “3 μM compound”, the inhibition at 3 µM amounted to 17.7%. For the same compound, the inhibition at 10 µM (10 μM compound) was -1.9%.

`O=C(NC(c1c(F)cccc1F)C1CC1)c1ccc(S(=O)(=O)Nc2nccs2)cc1` (stereo not drawn) [Example 140, N-[cyclopropyl(2,6-difluorophenyl)methyl]-4-[(1,3-thiazol-2-ylamino)sulfonyl]benzamide]: the inhibition at 3 µM (3 μM compound) worked out at 2.34%. In addition, the inhibition at 10 µM (10 μM compound) was found to be 18.9%.

As to `Cc1ccc(F)cc1CNC(=O)c1ccc(S(=O)(=O)Nc2nccs2)cc1` [Example 58, N-(5-fluoro-2-methylbenzyl)-4-[(1,3-thiazol-2-ylamino)sulfonyl]benzamide], under “3 μM compound”, the inhibition at 3 µM was determined as 37.4%. The inhibition at 10 µM (10 μM compound) was 49.7%.

With `O=C(c1ccc(S(=O)(=O)Nc2nccs2)cc1)N(Cc1ccccc1)[C@@H]1CCCC[C@H]1O` [Example 213, N-benzyl-N-[(1R,2R)-2-hydroxycyclohexyl]-4-[(1,3-thiazol-2-yl-amino)sulfonyl]benzamide], the inhibition at 3 µM (3 μM compound) was -0.67%. In addition, the inhibition at 10 µM (10 μM compound) came to 1.51%.

Take `Cc1cc(CC(NC(=O)c2ccc(S(=O)(=O)Nc3nccs3)cc2)c2ccc(F)cc2)on1` (stereo not drawn) [Example 156, N-[1-(4-fluorophenyl)-2-(3-methylisoxazol-5-yl)ethyl]-4-[(1,3-thiazol-2-ylamino)sulfonyl]benzamide]: the inhibition at 3 µM (3 μM compound) came out at 13.3%. In addition, where the note is “10 μM compound”, the inhibition at 10 µM is 30.3%.

On to `COc1ccc(CC2CCCN(C(=O)c3ccc(S(=O)(=O)Nc4nccs4)cc3)C2)cc1` (stereo not drawn) [Example 270, 4-{[3-(4-Methoxybenzyl)piperidin-1-yl]carbonyl}-N-1,3-thiazol-2-yl-benzenesulfonamide], for which the “SCN3A INHIB INACT DRC EP IWQ EMAX” value is listed as 53.7 and the IC50 stood at 27.7 µM. For the same compound, the inhibition at 3 µM (3 μM compound) was found to be 19.2%. Besides, the inhibition at 10 µM (10 μM compound) was found to be 45.7%.

In the case of `O=C(NCCOc1ccccc1)c1ccc(S(=O)(=O)Nc2nccs2)cc1` [Example 168, N-(2-phenoxyethyl)-4-[(1,3-thiazol-2-ylamino)sulfonyl]benzamide], where the note is “3 μM compound”, the inhibition at 3 µM was determined as 31.4%. For the same compound, the inhibition at 10 µM (10 μM compound) came to 39.3%.

With `Cc1nccc(C2CCCN2C(=O)c2ccc(S(=O)(=O)Nc3nccs3)cc2)n1` (stereo not drawn) [Example 212, 4-{[2-(2-Methylpyrimidin-4-yl)pyrrolidin-1-yl]carbonyl}-N-1,3-thiazol-2-yl-benzenesulfonamide], the inhibition at 3 µM (3 μM compound) was 14.7%. Further, the inhibition at 10 µM (10 μM compound) was -8.45%.

As for `COc1cccc(C2CCCCCN2C(=O)c2ccc(S(=O)(=O)Nc3nccs3)cc2)c1` (stereo not drawn) [Example 275, 4-{[2-(3-Methoxyphenyl)azepan-1-yl]carbonyl}-N-1,3-thiazol-2-yl-benzenesulfonamide], under “3 μM compound”, the inhibition at 3 µM turned out to be 9.93%. For the same compound, where the note is “10 μM compound”, the inhibition at 10 µM is -0.2%.

Turning to `CCN(C(=O)c1ccc(S(=O)(=O)Nc2nccs2)cc1)C(C)C(=O)c1ccccc1` (stereo not drawn) [Example 209, N-ethyl-N-(1-methyl-2-oxo-2-phenylethyl)-4-[(1,3-thiazol-2-yl-amino)sulfonyl]benzamide], where the note is “3 μM compound”, the inhibition at 3 µM came out at 5.72%. Further, the inhibition at 10 µM (10 μM compound) was -5.23%.

As to `COc1ccc(C2CC(CO)CN2C(=O)c2ccc(S(=O)(=O)Nc3nccs3)cc2)cc1` (stereo not drawn) [Example 280, 4-{[4-(Hydroxymethyl)-2-(4-methoxyphenyl)pyrrolidin-1-yl]carbonyl}-N-1,3-thiazol-2-yl-benzenesulfonamide], where the note is “3 μM compound”, the inhibition at 3 µM is 13.2%. Also, the inhibition at 10 µM (10 μM compound) stood at 17%.

Consider `O=C(c1ccc(S(=O)(=O)Nc2nccs2)cc1)N1CCOC(C2CC2)C1` (stereo not drawn) [Example 231, 4-[(2-Cyclopropylmorpholin-4-yl)carbonyl]-N-1,3-thiazol-2-yl-benzenesulfonamide], for which the inhibition at 3 µM (3 μM compound) came out at 3.22%. For the same compound, under “10 μM compound”, the inhibition at 10 µM is -7.02%.

Consider `O=C(c1ccc(S(=O)(=O)Nc2nccs2)cc1)N1CCCCC1c1ccccn1` (stereo not drawn) [Example 238, 4-[(2-Pyridin-2-ylpiperidin-1-yl)carbonyl]-N-1,3-thiazol-2-yl-benzenesulfonamide], for which the inhibition at 3 µM (3 μM compound) came to 3.68%. For the same compound, the inhibition at 10 µM (10 μM compound) amounted to 9.77%.

As for `Cc1cccc(C2(C)CN(C(=O)c3ccc(S(=O)(=O)Nc4nccs4)cc3)CCO2)c1` (stereo not drawn) [Example 189, 4-{[2-Methyl-2-(3-methylphenyl)morpholin-4-yl]carbonyl}-N-1,3-thiazol-2-yl-benzenesulfonamide], the inhibition at 3 µM (3 μM compound) came out at 25.3%. In addition, the inhibition at 10 µM (10 μM compound) was 21%.

Consider `O=C(NCc1cccc(C(F)(F)F)c1)c1ccc(S(=O)(=O)Nc2nccs2)c(Cl)c1` [Example 288, 3-Chloro-4-[(1,3-thiazol-2-ylamino)sulfonyl]-N-[3-(trifluoromethyl)benzyl]benzamide], for which the inhibition at 3 µM (3 μM compound) was 4.38%. The inhibition at 10 µM (10 μM compound) was 13.4%.

Take `O=C(c1ccc(S(=O)(=O)Nc2nccs2)cc1)N1CCSCC1c1ccc(F)cc1` (stereo not drawn) [Example 223, 4-{[3-(4-Fluorophenyl)thiomorpholin-4-yl]carbonyl}-N-1,3-thiazol-2-yl-benzenesulfonamide]: the “SCN3A INHIB INACT DRC EP IWQ EMAX” value is reported as 46.3 and the IC50 amounted to 33 µM. For the same compound, the inhibition at 3 µM (3 μM compound) was found to be 36.9%. In addition, the inhibition at 10 µM (10 μM compound) was determined as 47.5%.

On to `CN(CCC(O)c1ccccc1)C(=O)c1ccc(S(=O)(=O)Nc2nccs2)cc1` (stereo not drawn) [Example 235, N-(3-hydroxy-3-phenylpropyl)-N-methyl-4-[(1,3-thiazol-2-yl-amino)sulfonyl]benzamide], for which, where the note is “3 μM compound”, the inhibition at 3 µM stood at 21.4%. Moreover, the inhibition at 10 µM (10 μM compound) is -2.43%.

Values taken from patent publication US8741934B2, “Inhibitors of ion channels” (Pfizer Limited, priority 2007, dated 2014).
